In patent publication US10729700B2, “Methods and compositions of bile acids and salts for reduction of fat” (priority 2014, dated 2020):

How the values were obtained:
3T3-L1 adipocytes = experiment: Cell lysis effect by detergent in vitro (MTT assay); assay type: cell-based
Description: To induce adipocyte differentiation, 3T3-L1 pre-adipocytes were seeded in 96-well plate (5×10^3 cells/well) and grown until 2 days post-confluence (day 0) and then treated for 2 days with growth media plus MDI (0.5 μM methylisobutylxanthine, 1 μM dexamethasone and 10 ug/ml insulin; all from Sigma-Aldrich Chemical, St. Louis, Mo., USA), followed by 2 days of treatment with the media containing 10 ug/ml insulin alone. Medium was replaced every 2 days for the following 8 days. Differentiated adipocytes in 96 well plate were washed twice with PBS and incubated in various concentrations of bile salts in serum free DMEM. After 1 hour incubation at 37° C., media were changed and 20 μl of MTT solution (5 mg MTT/ml in PBS) was added into each well and incubated for 1 hour at 37° C. The resultant formazan product was dissolved in 100 μl of DMSO/well and cell viability was determined by measuring the optical density at 570 nm (OD570) using a microplate reader.

[1] = test system: Inguinal fat (subcutaneous fat) pads; experiment: Ex vivo fat lysis assay (MTT); assay type: cell-based, diet induced obese mice
Description: Inguinal fat (subcutaneous fat) pads were excised from diet induced obese mice and chopped to about the same size. 100 mg tissue samples were transferred to 48 well plates and incubated with 350 μl of various concentrations and pH of DCA, CDCA, CA, and phosphate buffer for 10 minutes. 70 μl of MTT solution (5 mg/ml in PBS) was added into each well and incubated for overnight at 37° C. The solution was removed and precipitated formazan product was dissolved in 300 μl of DMSO. Tissue viability was monitored by measuring the optical density at 570 nm (OD570) using a microplate reader.

[2] = test system: inguinal fat pads of obese mice; design: Inflammation of injection site: key to the marks not given beside the values; conditions: mouse, in vivo
rat paws = conditions: in vivo
Description: Male SD rats (6 weeks old) were purchased from Koatech Co. (Seoul, Korea) and used after 1 week of acclimation. Rats (200˜230 g) were randomly selected and the volume of intact rats paw was measured in all groups using a digital caliper (Bluebird, Seoul, Korea). […] To induce the edema, rats received 100 μl of various bile salts and PBS into the plantar region of the hind foot of rats. Measurements of the paw volume were performed by a caliper immediately before the bile salts injection and 4 hours after injection.

[3] = Stability of bile salts in aqueous solution; conditions: for Solution stability of bile salt: 1% in 10 mM phosphate buffer
Description: 0.01 g of bile salts (UDCA, DCA, CDCA and CA) were dissolved in 1 ml of phosphate buffer and placed at room temperature for 10 days.

[4] = test system: inguinal fat pads of obese mice; experiment: Quantitation of in vivo necrotic area (TTC staining) and histology of injected fat pads; conditions: necrotic area, FIGS. 12B and 12C
Description: Various concentrations of bile salts (DCA, CDCA, and CA) solutions in 100 μl volume of PBS were injected to the inguinal fat pads of obese mice. Mice were sacrificed at 1 day after the injection. Mouse inguinal fat pads were stained with 2% TTC (Sigma-Aldrich Chemical, St. Louis, Mo., USA) in PBS for 2 hour to identify the non-necrotic and necrotic areas and subsequently immersed in 10% formalin to enhance the contrast. […] The appearance and area of necrotic fat regions were captured and imaged by scanner. The necrotic area of fat pad treated DCA, CDCA, CA, and PBS was calculated by Image J.

Compound: C[C@H](CCC(=O)O)[C@H]1CC[C@H]2[C@@H]3C[C@H](O)[C@@H]4C[C@H](O)CC[C@]4(C)[C@H]3CC[C@]12C [HDCA, hyodeoxycholate]
- EC50 (concentration that kills 50% of the cells) (3T3-L1 adipocytes; differentiated 3T3-L1 adipocytes): 0.42%
- ED50 (% w/v); EC50 values of bile salts required to lysis of adipose cells in vitro (3T3-L1 adipocytes; differentiated 3T3-L1 adipocytes, 1 hour, MTT): 0.249 % w/v
- cell killing effect compared to CA (3T3-L1 adipocytes; similar concentration (0˜1%)): slightly higher cell killing effect compared to CA
- EC50 concentrations, ex vivo condition [1]: 0.0250%
- ED50 (% w/v); EC50 values of bile salts required to lysis of fat tissues ex vivo ([1]; fat tissues of high fat diet mice, 10 minutes, MTT): 0.0250 % w/v
- effect of increased pH of solution on fat lysis activities ([1]; pH 6.0 ˜pH 9.0, bile salt at EC50 in pH 7.4): greatly diminishes the fat lysis activities
- EC50 fold higher than DCA or CDCA, ex vivo ([1]; relative to DCA or CDCA): 1.4 fold
- Inflammation of injection site [2]: +++
- histological changes in fat pads (H & E) [2]: Infiltration of polymorphonuclear (PMN) cells into the fat pad tissue was observed
- inflammation after injection to subcutaneous fat [2]: severe inflammation
- Adverse event: edema (rat paws): ++
- severity of edema (paw thickness) (rat paws): slightly lower symptom
- Solution stability of bile salt ([3]; pH 6.5, 25° C.): Gelation
- Solution stability of bile salt ([3]; pH 6.7, 25° C.): Gelation
- Solution stability of bile salt ([3]; pH 7.0, 25° C.): Gelation
- Solution stability of bile salt ([3]; pH 7.2, 25° C.): Gelation
- Solution stability of bile salt ([3]; pH 7.4, 25° C.): Stable
- Solution stability of bile salt ([3]; pH 7.6, 25° C.): Stable
- Solution stability of bile salt ([3]; pH 7.8, 25° C.): Stable
- Solution stability of bile salt ([3]; pH 8.0, 25° C.): Stable
- Solution stability of bile salt ([3]; pH 8.3, 25° C.): Stable
- pH stability ([3]; summary, Table 4): <7.4
- tissue lysis effect with higher concentration [4]: did not increased proportionally
